According to patent publication US20260224538A1 (Purdue Research Foundation, priority 2023, published 2026):

What was measured:
Format in all cases: biochemical
Aβ1-42 = target: T1, Aβ1-42 (Homo sapiens, UniProt P05067); test: ThT fluorescence assay of Aβ1-42 fibril formation; conditions: screen on prone-to-aggregate proteins (FIG. 2A, FIG. 4A); Aβ 7 μM
T1 construct: α-syn, Aβ1-40, Aβ1-42 were procured from rPeptide; purchased rPeptide
Experimental: (§1) Thioflavin-T (ThT) fluorescence assays. Thioflavin-T (ThT) fluorescence assays were used to monitor fibril formation of recombinant Ap (fragments 1-40 and 1-42), recombinant α-syn, recombinant tau isoform 2N4R, synthetic IAPP, and synthetic TTR peptides treated with BTA and its derivatives. The IAPP ThT assay was performed in 10 mM PBS (pH 7.4) at a final concentration of 10 μM for both IAPP and ThT as published previously. Aβ fragments 1-40 and 1-42 were tested at 7 μM in 10 mM of PBS using ThT at a final concentration of 20 μM. Kinetics of α-syn fibrillization were performed as published previously.^36-37 TTR fragment kinetics of fibril formation were assessed at 10 μM in 100 mM sodium acetate buffer supplemented with 100 mM KCl and 1 mM ethylenediaminetetraacetic acid (EDTA) (pH 4) with 20 μM ThT. The fluorescence emission experiments were performed with the excitation and emission wavelengths set at 440 and 485 nm, respectively, with a Synergy HT multi-mode microplate reader (BioTek, Winooski, VT). Samples were measured in three replicates, and the experiments were repeated three times using at least two different stock solutions. For each time point, arbitrary units of fluorescence were calculated from the mean values normalized against the maximum value in each completed assay. The lag time for each condition was calculated as previously described. All results contained in histograms were presented as mean±SEM. Data were analyzed by the one-way analysis of variance with Dunnett's multiple comparisons between controls and compounds. Differences were considered statistically significant at p<0.05.

α-synuclein (α-syn) = target: T2, α-synuclein (α-syn) (Homo sapiens, UniProt P37840); test: Thioflavin-T (ThT) fluorescence assay of α-syn fibril formation
T2 construct: purchased rPeptide
Experimental: as §1
Compounds with the highest anti-fibrillary activity were tested at 3.125, 6.25, 12.5, 25, 50, and 100 μM to obtain dose-response curves with prepared α-syn and 2N4R tau at 6.25 μM and 6 μM, respectively. Compounds were tested with α-syn using a previously published procedure. Concerning the tau (isoform 2N4R) kinetics of fibril formation, measurements of ThT fluorescence were performed with a solution of the protein diluted to a final concentration of 6 μM in PBS (pH 7.4) supplemented with 1.5 μM heparin, 20 μM ThT, 2.5 mM DTT, and 100 μM compound. Aliquots of the diluted protein solution (100 μL each) were pipetted into the wells of a 96-well plate, and a Teflon ball was added to each well. The plate was incubated at 37° C. with constant shaking at 1,000 rpm in a Tecan Spark plate reader. ThT fluorescence was measured every 15 minutes with excitation and emission wavelengths of 440 nm and 480 nm, and the data were plotted using GraphPad Prism.

[1] = target: T3, transthyretin fragment peptide (TTR81-127) (Homo sapiens, UniProt P02766); test: ThT fluorescence assay of TTR81-127 fibril formation; conditions: compounds at 100 μM, TTR81-127 10 μM, control 0.25% DMSO
T3 construct: TTR fragment 81-127 was obtained from AnaSpec; purchased AnaSpec; host or cells: synthetic peptide
Experimental: as §1

TTR101-125 = target: T4, TTR101-125 (Homo sapiens, UniProt P02766); test: ThT fluorescence assay of TTR101-125 fibril formation; conditions: screen on prone-to-aggregate proteins (FIG. 4A)
T4 construct: TTR fragments 1-25, 26-50, 51-75, 76-100, 81-105, 101-125, and 101-125 were obtained from GenScript; purchased GenScript; host or cells: synthetic peptide
Experimental: as §1

tau isoform 2N4R = target: T5, tau isoform 2N4R (Homo sapiens, UniProt P10636); test: PICUP, tau isoform 2N4R oligomerization
T5 construct: made in house; host or cells: E. coli BL21(DE3)
Experimental: The bacterial expression plasmid consisting of the vector pRK172 carrying a cDNA encoding the human Tau 2N4R isoform was obtained from Dr. David Eliezer (Weill Cornell Medicine, New York, NJ). For protein expression, E. coli BL21(DE3) cells were transformed with the plasmid and grown in LB media supplemented with ampicillin (100 μg/mL). Protein over-expression was induced by the addition of 1 mM IPTG for 4 hours at 37° C., and cells were pelleted by centrifugation at 6,000 g for 15 minutes at 4° C. The cells were resuspended in lysis buffer (20 mM MES, 400 mM NaCl, 0.2 mM MgCl2, 1 mM EGTA, protease inhibitor cocktail (P8340, Sigma Aldrich), 0.25 mg/mL lysozyme, and 1 μg/mL DNase 1, pH 6.8) and lysed by a French press cell disruptor at 4° C., after which the lysate was boiled for 20 minutes. Denatured proteins were pelleted by centrifugation at 30,000 g for 30 minutes at 4° C., and the supernatant was dialyzed overnight against cation exchange buffer (20 mM MES, 50 mM NaCl, 1 mM MgCl2, 1 mM EGTA, 2 mM DTT, 0.1 mM PMSF, pH 6.8). The dialysate was loaded onto a HiPrep SP HP column, and proteins were eluted with a linear gradient ranging from 50 mM to 1 M NaCl. Fractions containing tau isoform 2N4R were pooled, and the resulting protein solution was dialyzed against PBS (pH 7.4) and stored at −80° C.
Photo-induced Cross-linking of Unmodified Proteins (PICUP) Assay. To induce oligomerization by cross-linking, α-syn (from Rpeptide, LLC) and tau isoform 2N4R were diluted in 10 mM phosphate buffer (pH 7.4) to reach a final concentration of 10 μM. Different compounds were added to the protein solution at a final concentration of 50 μM, resulting in a molar ratio of 1:5. To confirm the gradual effect of the compounds on the inhibition of α-syn oligomerization, the compounds were tested at final concentrations of 3.125, 6.25, 12.5, 25, and 50 μM. The controls consisted of samples without light exposition, without Ru(bpy) or ammonium persulfate, and without compound (i.e., 0.125% DMSO). The cross-linking reaction was initiated by the addition of 2 μL of Ru(bpy) (300 μM final concentration) and 2 μL ammonium persulfate (6 mM final concentration). Samples were irradiated immediately. Light exposure was of a one-second duration for α-syn and a three-second duration for tau isoform 2N4R, with a 53 W (120 V) incandescent lamp installed in a homemade dark-box. Each tube contained a final volume of 20 μL. After irradiation, 8.3 μL of Laemmli loading buffer containing 15% β-mercaptoethanol were immediately added to the solution, followed by incubation at 95° C. for 10 minutes. The cross-linked samples were separated on a 16% SDS-PAGE gel and visualized by Coomassie blue staining.

T5 sequence (P10636 1-441 isoform P10636-8): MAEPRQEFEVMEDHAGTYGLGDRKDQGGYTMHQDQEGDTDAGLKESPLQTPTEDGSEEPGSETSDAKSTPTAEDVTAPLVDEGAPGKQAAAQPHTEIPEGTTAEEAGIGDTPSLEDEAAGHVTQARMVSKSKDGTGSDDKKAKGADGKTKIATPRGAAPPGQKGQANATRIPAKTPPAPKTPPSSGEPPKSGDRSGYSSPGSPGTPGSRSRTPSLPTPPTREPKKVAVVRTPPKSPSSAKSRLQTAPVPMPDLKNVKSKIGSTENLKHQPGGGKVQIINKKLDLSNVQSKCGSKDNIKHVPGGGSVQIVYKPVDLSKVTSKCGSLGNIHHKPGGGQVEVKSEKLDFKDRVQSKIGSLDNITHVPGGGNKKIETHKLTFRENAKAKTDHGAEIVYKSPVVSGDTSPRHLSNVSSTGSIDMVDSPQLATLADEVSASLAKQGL
T1 sequence (P05067 672-713 limits assumed): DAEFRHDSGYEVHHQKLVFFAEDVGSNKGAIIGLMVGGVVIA

- thioflavin T fluorescence intensity, Aβ1-42 (Aβ1-42): 27.5±4%
- α-syn fibrillization (ThT), dose response (α-synuclein (α-syn); 3.125-100 μM, plateau phase): protein fibrillization was reduced
- remaining activity at 100 µM (α-synuclein (α-syn); compounds at 100 μM, α-syn 6.25 μM, control 0.25% DMSO, read-out: ThT a-Syn (%), maximum thioflavin T (ThT) intensity in percentage): 36.2 ± 3.1%
- ThT TTR81-127 (%), maximum thioflavin T (ThT) intensity in percentage [1]: 54.7 ± 1.4%
- remaining activity at 100 µM ([1]; read-out: ThT TTR81-127 (%), maximum thioflavin T (ThT) intensity in percentage): 54.7 ± 1.4%
Structure (SMILES): Nc1nsc2ccc([N+](=O)[O-])cc12 [A, 5-nitro-1,2-benzothiazol-3-amine]
- thioflavin T fluorescence intensity, α-syn (α-synuclein (α-syn); screen on prone-to-aggregate proteins (FIG. 2A, FIG. 4A)): significantly more effective at preventing the aggregation
- thioflavin T fluorescence intensity, TTR101-125 (TTR101-125): significantly more effective at preventing the aggregation
- tau isoform 2N4R oligomer formation (PICUP), dose dependence (tau isoform 2N4R; 3.125-50 μM): reduced the oligomer formation in a dose-dependent manner
- tau isoform 2N4R oligomer formation (PICUP) (tau isoform 2N4R; compound 50 μM): reduced α-syn and tau isoform 2N4R oligomer formation
